In patent publication US7608642B2, “Wound and skin care compositions” (Kimberly-Clark Worldwide, Inc., priority 2002, dated 2009):
Where “and” joins values, the source holds several entries; their conditions need not be identical. Identical values can stand only once. Entries after “also recorded” stand apart in the source; their conditions may differ.

How the values were obtained:
[1] = system: healthy female volunteers; assay: Dansyl chloride cell renewal study (stratum corneum renewal time); format: in vivo, human
Text: The stratum corneum renewal time is the time taken for the whole thickness of the stratum corneum to be exfoliated and replaced by new cells from the dividing epidermis. This renewal time is a fundamental indicator of skin health. […] See Jansen L H, Hojyo-Tomoko M T, Kligman A M., Improved fluorescence staining technique for estimating turnover of the human stratum corneum, Br J Dermatol., 90, 9-12, 1974; Ridge B D, Batt M D, Palmer H E, Jarrett A, The dansyl chloride technique for stratum corneum renewal as an indicator of changes in epidermal mitotic activity following topical treatment., Br J Dermatol., 118, 167-74, 1988; Grove G L, Kligman A M, Age-associated changes in human epidermal cell renewal., J Geron., 38, 137-142, 1983. The time required for the dye to disappear is therefore an indication of the turnover time of the stratum corneum. Therefore, any differences in the time required for the dye to disappear from treated and non-treated sites can be considered to be an expression of that product's ability to enhance epidermal renewal.
A dansyl chloride cell renewal study was conducted in healthy female volunteers ranging from 43-64 years of age. The study consisted of a two-week treatment period during which time the products were applied topically twice daily, including on weekend days, to the test sites. The area of application was designated, approximately 5 cm×10 cm on the upper inner arm. The other arm served as a control with no product application. […] Eight females received jasmonic acid and seven females received gibberellic acid.
The time required for a marker dye to disappear was used as the measure of cell renewal rate.

[2] = system: Swiss Albino mice; assay: Wound healing, full thickness skin wounds (3 mm biopsy punch) in mice; format: in vivo, mouse
Procedure: Twenty, 12-week old Swiss Albino mice were anesthetized with a ketamine/acepromazine cocktail and subjected to four full thickness skin wounds on the dorsolateral surface. […] Jasmonic acid (100 mg) was dissolved in 2 ml ethanol. 200 μl of the resulting solution was then added to 4.8 ml of WFI. Four wounds were made on either side of the spinal column using a 3 mm biopsy punch. To make the wounds, the skin was first tented and the punch was driven through the tented skin to generate both wounds with a single stroke. The upper left quadrant wound site of the animal was assigned to receive the control solution (WFI). […] The wound sites were dosed 5 times (twice on Day 0, Day 1, and once on Day 2). All wounds were treated with 5 μl of test or control solutions. Wounds were allowed to absorb the solutions for 5 minutes before returning the animals to their cages for recovery. All the animals were housed singly. The in-life phase for the animals is 5 days. Each day the wounds on the mice were traced onto glass slides and measured using calipers accurate to the nearest 0.1 mm. Photographs of the wounds were also taken daily for the duration of the study to measure wound size. Means and the standard deviations of the wound diameters for each day were calculated for the healing profile. The effects of the test substances on wound healing were compared to the effects of the control (WFI).

[3] = system: fibronectin production in the human skin fibroblast cell line; assay: Fibronectin production in human skin fibroblasts (Takara EIA kit MK115, absorbance 450 nm); format: cell-based; conditions: for Mean optical density (OD) at 450 nm, fibronectin production / Median optical density (OD) at 450 nm, fibronectin production: 48 hours, n=2
Procedure: The cells were first grown in a 96-well assay system using Dulbecco's Modified Eagle's Medium (DMEM) with 10% fetal bovine serum (FBS) both purchased from Sigma Chemical Co, St. Louis, Mo. Serum-free DMEM was used as a control. […] The fibronectin assay was performed using the recommended 100 μl of the supernatant from each well of the 96-well plate. Standard buffer and stop solutions were freshly prepared before running the assay. A pre-antibody-coated 96 well plate (provided with the kit) was used to transfer the test samples and control. The plate was mixed, sealed and incubated for 1 hour at 37° C. All the wells were washed after removing sample solutions, 3 times (300 μl) with washing buffer. 100 ul of antibody-POD conjugate solution was added into the wells. Plate was mixed, sealed and incubated for one hour at 37° C. Solutions were removed and the wells were washed 3 times with washing buffer. All the wells were completely emptied at the end of washing from any liquid. 100 μl of substrate solution (hydrogen peroxide and tetramethylbenzidine in a buffered solution) was added to each well and the plate was incubated at room temperature for 15 minutes. 100 μl of stop solution (freshly prepared 1N H2SO4) was added to each well in the same order as substrate. The plate was gently mixed and absorbance was read at 450 nm.

[4] = system: collagen production in the human skin fibroblast cell line; assay: Collagen production in human skin fibroblasts (Takara EIA kit MK101, absorbance 450 nm); format: cell-based; conditions: for Mean optical density (OD) at 450 nm, collagen production / Median optical density (OD) at 450 nm, collagen production: 48 hours, n=2
Procedure: The cells were first grown in a 96-well assay system using Dulbecco's Modified Eagle's Medium (DMEM) with 10% fetal bovine serum (FBS) both purchased from Sigma Chemical Co, St. Louis, Mo. Serum-free DMEM was used as a control.
The assay was done by using the recommended 20 ul of the supernatant from each well of the 96-well plate. Standard buffer and stop solutions were freshly prepared before running the assay. 100 ul of antibody-POD conjugate solution (supplied with the kit) was added into the wells using pre antibody coated 96 well plate (supplied with the kit). 20 ul of standard and test solutions (from the other 96-well plate containing fibroblasts) were added to appropriate wells. Plate was mixed gently, sealed and incubated for three hrs. at 37° C.
After incubation each well was washed carefully four times with PBS buffer (400 ul). All the wells were completely emptied at the end of washing from any liquid.
100 ul of substrate solution (hydrogen peroxide and tetramethylbenzidine in a buffer solution, supplied with the kit) was added to each well and the plate was incubated for 15 minutes. At this point 100 ul of stop solution (freshly prepared 1N H2SO4) was added to each well in the same order as substrate. The plate was gently mixed and absorbance was read at 450 nm.

[5] = system: human skin keratinocyte cell line (normal human epidermal keratinocytes, neonatal); assay: Proliferation of human skin keratinocytes (Cell Titer 96, absorbance 490 nm); format: cell-based; conditions: for Mean optical density (OD) at 490 nm, cell proliferation / Median optical density (OD) at 490 nm, cell proliferation: 48 hours, KBM, n=5
Procedure: In addition, 100 μl of vehicle KBM was added to 5 wells as control. […] The spectrophotometric absorbance of each well was read at 490 nm.

[6] = 1×10^−4 M to 1×10^−6 M vs control

## CC/C=C\C[C@H]1C(=O)CC[C@@H]1CC(=O)O [jasmonic acid]
[1]; 0.25% in hyaluronic acid (0.5% aqueous solution), topical twice daily for two weeks, upper inner arm, individual patients, listed as JA
  Time for cell renewal, treated skin (RENEWAL): 12 Days (2×) and 16 Days and 15 Days (2×) and 17 Days and 14 Days and 11 Days
[1]; in vivo
  Skin irritation or redness: no visible sign of any skin irritation or redness
[2]; topical 0.2% solution vs control (WFI)
  Time control-treated wounds required to close to the same extent achieved in jasmonic acid-treated wounds on day 1: over 2.5 days
[2]; topical 5 μl of 0.2% solution, 5 doses Day 0-2, vs control (WFI)
  Effect on wound closure / wound healing (in words): significantly accelerated the rate of wound healing; also recorded: experienced slower wound closure than mice receiving a 0.2% solution of jasmonic acid
[3]; [6]
  Stimulation of fibronectin production (in words): effective for stimulating fibronectin production in human fibroblasts; also recorded: all compounds stimulated fibronectin production
[3]; 1×10^−4 M
  Mean optical density (OD) at 450 nm, fibronectin production: 0.2060
  Median optical density (OD) at 450 nm, fibronectin production: 0.2060
[3]; 1×10^−5 M
  Mean optical density (OD) at 450 nm, fibronectin production: 0.2025
  Median optical density (OD) at 450 nm, fibronectin production: 0.2025
[3]; 1×10^−6 M
  Mean optical density (OD) at 450 nm, fibronectin production: 0.1955
  Median optical density (OD) at 450 nm, fibronectin production: 0.1955
[4]; [6]
  Stimulation of collagen production (in words): strongly stimulated collagen production at higher concentrations; also recorded: Higher concentrations of jasmonic acid and medium concentrations of zeatin also stimulated collagen production
[4]; 1×10^−4 M
  Mean optical density (OD) at 450 nm, collagen production: 0.8040
  Median optical density (OD) at 450 nm, collagen production: 0.8040
[4]; 1×10^−5 M
  Mean optical density (OD) at 450 nm, collagen production: 0.7895
  Median optical density (OD) at 450 nm, collagen production: 0.7895
[4]; 1×10^−6 M
  Mean optical density (OD) at 450 nm, collagen production: 0.7475
  Median optical density (OD) at 450 nm, collagen production: 0.7475
[5]; [6]
  Cell proliferating activity on human keratinocytes (in words): strong cell proliferating activity especially at the lower concentrations; also recorded: all concentrations of jasmonic acid had an effect on cell growth
[5]; 1×10^−4 M
  Mean optical density (OD) at 490 nm, cell proliferation: 0.5732
  Median optical density (OD) at 490 nm, cell proliferation: 0.5860
[5]; 1×10^−5 M
  Mean optical density (OD) at 490 nm, cell proliferation: 0.7628
  Median optical density (OD) at 490 nm, cell proliferation: 0.7750
[5]; 1×10^−6 M
  Mean optical density (OD) at 490 nm, cell proliferation: 0.7734
  Median optical density (OD) at 490 nm, cell proliferation: 0.7970
